Where two headings read alike, the source gives them in different places. Numbered stars: 1 amine (or outer) side, 2 acyl side, 3 side chain; on linkers, the order of the positions; unused ones are H or OH. Square brackets hold non-standard residues; d marks the D form. Side chains are listed from the residue outwards. Peptide text beside a SMILES is read from it. * marks the point of attachment. Phe(4-CH2NH2) = NCc1ccc(C[C@H](N)C(=O)O)cc1; C18 diacid = O=C(O)CCCCCCCCCCCCCCCCC(=O)*; γGlu = O=C(O)[C@H](CCC(=O)[*:2])N[*:1]; Met(O2) = CS(=O)(=O)CC[C@H](N)C(=O)O; AEEA = NCCOCCOCC(=O)O; Aib = CC(C)(N)C(=O)O
Tests used:
human GCGR = target: T1, human GCGR (Homo sapiens, UniProt P47871); experiment: cAMP activity assay at the Glucagon receptor (GCGR); type: cell-based; details: for hGCGR/hGLP1R (hTone): ratio of GCGR EC50 to GLP1R EC50
T1 construct: expressed in transfected cells; growth medium holds Blasticidin and Hygromycin
In short: (§1)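 Peptides serially diluted from DMSO (10 points) and added to frozen-stock cells bearing human GLP1R (10,000 cells/well) or GCGR (30,000 cells/well), 1 h at RT, dark. EC50 by four-parameter logistic fit of HitHunter cAMPXS luminescence, read following overnight RT incubation.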

human GLP1R = target: T2, human GLP1R (Homo sapiens, UniProt P43220); experiment: cAMP activity assay at the GLP-1 receptor (GLP1R); type: cell-based
T2 construct: expressed in transfected cells; growth medium holds Blasticidin and Hygromycin
In short: as §1

[1] = summary statement: EC50 at each of the glucagon and GLP-1 receptors, read-out: EC50 at the glucagon receptor
[2] = summary statement: EC50 at each of the glucagon and GLP-1 receptors, read-out: EC50 at the GLP-1 receptor
[3] = cells expressing human GCGR, cAMP production, buffer with or without 20% human serum (not stated which), read-out: GCGR EC50 human
[4] = cells expressing human GLP1R, cAMP production, buffer with or without 20% human serum (not stated which), read-out: GLP1R EC50 human

T2 sequence (P43220 24-463): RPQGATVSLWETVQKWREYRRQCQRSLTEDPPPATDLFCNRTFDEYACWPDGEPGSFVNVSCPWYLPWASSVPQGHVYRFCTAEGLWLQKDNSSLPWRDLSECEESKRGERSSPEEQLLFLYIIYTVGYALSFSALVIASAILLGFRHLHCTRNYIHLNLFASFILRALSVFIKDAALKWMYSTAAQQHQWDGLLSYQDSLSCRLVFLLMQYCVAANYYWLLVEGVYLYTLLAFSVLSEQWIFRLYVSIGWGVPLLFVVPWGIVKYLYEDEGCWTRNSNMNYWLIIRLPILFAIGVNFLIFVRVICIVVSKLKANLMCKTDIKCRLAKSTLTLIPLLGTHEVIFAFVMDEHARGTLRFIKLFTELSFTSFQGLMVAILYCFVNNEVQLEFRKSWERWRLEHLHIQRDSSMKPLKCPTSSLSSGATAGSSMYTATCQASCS
T1 sequence (P47871 26-477): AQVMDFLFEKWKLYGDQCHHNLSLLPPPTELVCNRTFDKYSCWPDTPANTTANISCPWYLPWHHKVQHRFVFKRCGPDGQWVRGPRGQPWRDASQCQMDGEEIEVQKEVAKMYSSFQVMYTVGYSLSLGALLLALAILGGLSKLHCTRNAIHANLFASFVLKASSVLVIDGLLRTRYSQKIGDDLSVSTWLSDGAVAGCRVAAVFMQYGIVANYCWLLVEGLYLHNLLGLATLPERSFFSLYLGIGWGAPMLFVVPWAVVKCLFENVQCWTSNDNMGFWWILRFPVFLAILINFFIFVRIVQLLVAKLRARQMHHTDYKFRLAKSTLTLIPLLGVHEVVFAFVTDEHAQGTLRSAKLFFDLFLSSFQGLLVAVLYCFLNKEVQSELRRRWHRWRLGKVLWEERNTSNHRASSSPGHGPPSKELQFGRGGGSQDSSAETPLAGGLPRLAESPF

With `CC(C)C[C@H](NC(=O)[C@H](Cc1ccc(O)cc1)NC(=O)[C@H](CCCCN)NC(=O)[C@H](CO)NC(=O)[C@H](Cc1ccc(O)cc1)NC(=O)[C@H](CC(=O)O)NC(=O)[C@H](CO)NC(=O)[C@@H](NC(=O)[C@H](Cc1ccccc1)NC(=O)[C@@H](NC(=O)CNC(=O)[C@H](CCC(N)=O)NC(=O)C(C)(C)NC(=O)[C@@H](N)Cc1c[nH]cn1)[C@@H](C)O)[C@@H](C)O)C(=O)N[C@@H](CC(=O)O)C(=O)N[C@@H](C)C(=O)N[C@@H](CCCNC(=N)N)C(=O)N[C@@H](C)C(=O)N[C@@H](C)C(=O)N[C@@H](CCC(N)=O)C(=O)N[C@@H](CC(=O)O)C(=O)N[C@@H](Cc1ccccc1)C(=O)N[C@H](C(=O)N[C@@H](CCCCNC(=O)COCCOCCNC(=O)CC[C@H](NC(=O)CCCCCCCCCCCCCCCCC(=O)O)C(=O)O)C(=O)N[C@@H](Cc1c[nH]c2ccccc12)C(=O)N[C@@H](CC(C)C)C(=O)N[C@@H](CCS(C)(=O)=O)C(=O)N[C@@H](CC(=O)O)C(=O)N[C@H](C(N)=O)[C@@H](C)O)C(C)C` [TP637] (H-H[Aib]QGTFTSDYSKYLDARAAQDFVK([AEEA-γGlu-C18 diacid])WL[Met(O2)]DT-NH2; N-terminus assumed) the “hGCGR/hGLP1R (hTone)” value (human GCGR) was 1.8, the EC50 (human GCGR; [1]) was < 5 nM and the EC50 (human GLP1R; [2]) was < 5 nM.

In the case of `CC(C)C[C@H](NC(=O)[C@H](Cc1ccc(O)cc1)NC(=O)[C@H](CCCCN)NC(=O)[C@H](CO)NC(=O)[C@H](Cc1ccc(O)cc1)NC(=O)[C@H](CC(=O)O)NC(=O)[C@H](CO)NC(=O)[C@@H](NC(=O)[C@H](Cc1ccccc1)NC(=O)[C@@H](NC(=O)CNC(=O)[C@H](CCC(N)=O)NC(=O)C(C)(C)NC(=O)[C@@H](N)Cc1c[nH]cn1)[C@@H](C)O)[C@@H](C)O)C(=O)N[C@@H](CC(=O)O)C(=O)N[C@@H](C)C(=O)N[C@@H](CCCNC(=N)N)C(=O)N[C@@H](C)C(=O)N[C@@H](C)C(=O)N[C@@H](CCC(N)=O)C(=O)N[C@@H](CC(=O)O)C(=O)N[C@@H](Cc1ccccc1)C(=O)N[C@H](C(=O)N[C@@H](Cc1ccc(CNC(=O)COCCOCCNC(=O)CC[C@H](NC(=O)CCCCCCCCCCCCCCCCC(=O)O)C(=O)O)cc1)C(=O)N[C@@H](Cc1c[nH]c2ccccc12)C(=O)N[C@@H](CC(C)C)C(=O)N[C@@H](CC(C)C)C(=O)N[C@@H](CC(=O)O)C(=O)N[C@H](C(N)=O)[C@@H](C)O)C(C)C` [TP638] (H-H[Aib]QGTFTSDYSKYLDARAAQDFV[Phe(4-CH2NH2)]([AEEA-γGlu-C18 diacid])WLLDT-NH2), the “hGCGR/hGLP1R (hTone)” value (human GCGR) is reported as 3.3, the EC50 (human GCGR; [1]) is reported as < 5 nM and the EC50 (human GLP1R; [2]) is reported as < 5 nM.

`CC(C)C[C@H](NC(=O)[C@H](Cc1ccc(O)cc1)NC(=O)[C@H](CCCCN)NC(=O)[C@H](CO)NC(=O)[C@H](Cc1ccc(O)cc1)NC(=O)[C@H](CC(=O)O)NC(=O)[C@H](CO)NC(=O)[C@@H](NC(=O)[C@H](Cc1ccccc1)NC(=O)[C@@H](NC(=O)CNC(=O)[C@H](CCC(N)=O)NC(=O)C(C)(C)NC(=O)[C@@H](N)Cc1c[nH]cn1)[C@@H](C)O)[C@@H](C)O)C(=O)N[C@@H](CC(=O)O)C(=O)N[C@@H](C)C(=O)N[C@@H](CCCNC(=N)N)C(=O)N[C@@H](C)C(=O)N[C@@H](C)C(=O)N[C@@H](CCCCNC(=O)COCCOCCNC(=O)COCCOCCNC(=O)CC[C@H](NC(=O)CCCCCCCCCCCCCCCCC(=O)O)C(=O)O)C(=O)N[C@@H](CC(=O)O)C(=O)N[C@@H](Cc1ccccc1)C(=O)N[C@H](C(=O)N[C@@H](CCC(N)=O)C(=O)N[C@@H](Cc1c[nH]c2ccccc12)C(=O)N[C@@H](CC(C)C)C(=O)N[C@@H](CCS(C)(=O)=O)C(=O)N[C@@H](CCC(=O)O)C(=O)N[C@H](C(N)=O)[C@@H](C)O)C(C)C` [TP672] (H-H[Aib]QGTFTSDYSKYLDARAAK([AEEA-AEEA-γGlu-C18 diacid])DFVQWL[Met(O2)]ET-NH2; N-terminus assumed) was tested, and the EC50 (human GCGR; [3]) was 0.35 nM, the “hGCGR/hGLP1R (hTone)” value (human GCGR) was 0.7 and the EC50 (human GCGR; [1]) was < 5 nM. The EC50 (human GLP1R; [2]) was < 5 nM.

For `CC(C)C[C@H](NC(=O)[C@H](Cc1c[nH]c2ccccc12)NC(=O)[C@H](CCC(N)=O)NC(=O)[C@@H](NC(=O)[C@H](Cc1ccccc1)NC(=O)[C@H](CC(=O)O)NC(=O)[C@H](CCCCNC(=O)COCCOCCNC(=O)COCCOCCNC(=O)CC[C@H](NC(=O)CCCCCCCCCCCCCCCCC(=O)O)C(=O)O)NC(=O)[C@H](C)NC(=O)[C@H](C)NC(=O)[C@H](CCCNC(=N)N)NC(=O)C(C)(C)NC(=O)[C@H](CC(=O)O)NC(=O)[C@H](CC(C)C)NC(=O)[C@H](Cc1ccc(O)cc1)NC(=O)[C@H](CCCCN)NC(=O)[C@H](CO)NC(=O)[C@H](Cc1ccc(O)cc1)NC(=O)[C@H](CC(=O)O)NC(=O)[C@H](CO)NC(=O)[C@@H](NC(=O)[C@H](Cc1ccccc1)NC(=O)[C@@H](NC(=O)CNC(=O)[C@H](CCC(N)=O)NC(=O)C(C)(C)NC(=O)[C@@H](N)Cc1c[nH]cn1)[C@@H](C)O)[C@@H](C)O)C(C)C)C(=O)N[C@@H](CCS(C)(=O)=O)C(=O)N[C@@H](CCC(=O)O)C(=O)N[C@H](C(N)=O)[C@@H](C)O` [TP673] (H-H[Aib]QGTFTSDYSKYLD[Aib]RAAK([AEEA-AEEA-γGlu-C18 diacid])DFVQWL[Met(O2)]ET-NH2; N-terminus assumed), the EC50 (human GCGR; [3]) was 0.22 nM, the “hGCGR/hGLP1R (hTone)” value (human GCGR) was 0.3 and the EC50 (human GCGR; [1]) was < 5 nM. For the same molecule, the EC50 (human GLP1R; [2]) was < 5 nM.

For `CC(C)C[C@H](NC(=O)[C@H](Cc1ccc(O)cc1)NC(=O)[C@H](CCCCN)NC(=O)[C@H](CO)NC(=O)[C@H](Cc1ccc(O)cc1)NC(=O)[C@H](CC(=O)O)NC(=O)[C@H](CO)NC(=O)[C@@H](NC(=O)[C@H](Cc1ccccc1)NC(=O)[C@@H](NC(=O)CNC(=O)[C@H](CCC(N)=O)NC(=O)C(C)(C)NC(=O)[C@@H](N)Cc1c[nH]cn1)[C@@H](C)O)[C@@H](C)O)C(=O)N[C@@H](CCC(=O)O)C(=O)N[C@@H](C)C(=O)N[C@@H](CCCNC(=N)N)C(=O)N[C@@H](C)C(=O)N[C@@H](C)C(=O)N[C@@H](CCCCNC(=O)COCCOCCNC(=O)COCCOCCNC(=O)CC[C@H](NC(=O)CCCCCCCCCCCCCCCCC(=O)O)C(=O)O)C(=O)N[C@@H](CC(=O)O)C(=O)N[C@@H](Cc1ccccc1)C(=O)N[C@H](C(=O)N[C@@H](CCC(N)=O)C(=O)N[C@@H](Cc1c[nH]c2ccccc12)C(=O)N[C@@H](CC(C)C)C(=O)N[C@@H](CCS(C)(=O)=O)C(=O)N[C@@H](CC(=O)O)C(=O)N[C@H](C(N)=O)[C@@H](C)O)C(C)C` [TP674] (H-H[Aib]QGTFTSDYSKYLEARAAK([AEEA-AEEA-γGlu-C18 diacid])DFVQWL[Met(O2)]DT-NH2; N-terminus assumed), the “hGCGR/hGLP1R (hTone)” value (human GCGR) was 2.4, the EC50 (human GCGR; [1]) was < 5 nM and the EC50 (human GLP1R; [4]) was 0.45 nM. The EC50 (human GLP1R; [2]) was < 5 nM.

`CC(C)C[C@H](NC(=O)[C@H](Cc1c[nH]c2ccccc12)NC(=O)[C@H](CCCCNC(=O)COCCOCCNC(=O)COCCOCCNC(=O)CC[C@H](NC(=O)CCCCCCCCCCCCCCCCC(=O)O)C(=O)O)NC(=O)[C@@H](NC(=O)[C@H](Cc1ccccc1)NC(=O)[C@H](CC(=O)O)NC(=O)[C@H](CCC(N)=O)NC(=O)[C@H](C)NC(=O)[C@H](C)NC(=O)[C@H](CCCNC(=N)N)NC(=O)C(C)(C)NC(=O)[C@H](CC(=O)O)NC(=O)[C@H](CC(C)C)NC(=O)[C@H](Cc1ccc(O)cc1)NC(=O)[C@H](CCCCN)NC(=O)[C@H](CO)NC(=O)[C@H](Cc1ccc(O)cc1)NC(=O)[C@H](CC(=O)O)NC(=O)[C@H](CO)NC(=O)[C@@H](NC(=O)[C@H](Cc1ccccc1)NC(=O)[C@@H](NC(=O)CNC(=O)[C@H](CCC(N)=O)NC(=O)C(C)(C)NC(=O)[C@@H](N)Cc1c[nH]cn1)[C@@H](C)O)[C@@H](C)O)C(C)C)C(=O)N[C@@H](CCS(C)(=O)=O)C(=O)N[C@@H](CCC(=O)O)C(=O)N[C@H](C(N)=O)[C@@H](C)O` [TP675] (H-H[Aib]QGTFTSDYSKYLD[Aib]RAAQDFVK([AEEA-AEEA-γGlu-C18 diacid])WL[Met(O2)]ET-NH2) was tested, and the “hGCGR/hGLP1R (hTone)” value (human GCGR) was 0.4, the EC50 (human GCGR; [1]) was < 5 nM and the EC50 (human GLP1R; [4]) was 0.71 nM. For the same molecule, the EC50 (human GLP1R; [2]) was < 5 nM.

For `CC(C)C[C@H](NC(=O)[C@H](Cc1ccc(O)cc1)NC(=O)[C@H](CCCCN)NC(=O)[C@H](CO)NC(=O)[C@H](Cc1ccc(O)cc1)NC(=O)[C@H](CC(=O)O)NC(=O)[C@H](CO)NC(=O)[C@@H](NC(=O)[C@H](Cc1ccccc1)NC(=O)[C@@H](NC(=O)CNC(=O)[C@H](CCC(N)=O)NC(=O)C(C)(C)NC(=O)[C@@H](N)Cc1c[nH]cn1)[C@@H](C)O)[C@@H](C)O)C(=O)N[C@@H](CC(=O)O)C(=O)N[C@@H](C)C(=O)N[C@@H](CCCNC(=N)N)C(=O)N[C@@H](C)C(=O)N[C@@H](C)C(=O)N[C@@H](CCCCNC(=O)COCCOCCNC(=O)COCCOCCNC(=O)COCCOCCNC(=O)CC[C@H](NC(=O)CCCCCCCCCCCCCCCCC(=O)O)C(=O)O)C(=O)N[C@@H](CC(=O)O)C(=O)N[C@@H](Cc1ccccc1)C(=O)N[C@H](C(=O)N[C@@H](CCC(N)=O)C(=O)N[C@@H](Cc1c[nH]c2ccccc12)C(=O)N[C@@H](CC(C)C)C(=O)N[C@@H](CCS(C)(=O)=O)C(=O)N[C@@H](CC(=O)O)C(=O)N[C@H](C(N)=O)[C@@H](C)O)C(C)C` [TP676] (H-H[Aib]QGTFTSDYSKYLDARAAK([AEEA-AEEA-AEEA-γGlu-C18 diacid])DFVQWL[Met(O2)]DT-NH2; N-terminus assumed), the “hGCGR/hGLP1R (hTone)” value (human GCGR) was 3.1, the EC50 (human GCGR; [1]) was < 5 nM and the EC50 (human GLP1R; [4]) was 0.26 nM. The EC50 (human GLP1R; [2]) was < 5 nM.
